± gives the expanded uncertainty stated by the source.
Assay: excess molar enthalpy (molar enthalpy of mixing); xn = mol fraction of the nth substance listed
Details: 298.15 K, 101 kPa, Liquid, Calvet calorimetry

With `CCCCCCCC[n+]1ccn(C)c1.F[B-](F)(F)F` [1-methyl-3-octylimidazolium tetrafluoroborate] + CCCCO the excess molar enthalpy (x1 = 0.191) was 0.349 ± 0.00813 kcal/mol, the excess molar enthalpy (x1 = 0.195) was 0.355 ± 0.00813 kcal/mol and the excess molar enthalpy (x1 = 0.2) was 0.362 ± 0.00837 kcal/mol. It also gave an excess molar enthalpy (x1 = 0.204) of 0.369 ± 0.0086 kcal/mol, an excess molar enthalpy (x1 = 0.209) of 0.376 ± 0.0086 kcal/mol and an excess molar enthalpy (x1 = 0.214) of 0.384 ± 0.00884 kcal/mol. The excess molar enthalpy (x1 = 0.219) was 0.391 ± 0.00884 kcal/mol, the excess molar enthalpy (x1 = 0.223) was 0.397 ± 0.00884 kcal/mol and the excess molar enthalpy (x1 = 0.228) was 0.402 ± 0.00884 kcal/mol. The excess molar enthalpy (x1 = 0.233) was 0.407 ± 0.00908 kcal/mol, the excess molar enthalpy (x1 = 0.238) was 0.413 ± 0.00908 kcal/mol and the excess molar enthalpy (x1 = 0.243) was 0.419 ± 0.00932 kcal/mol. The excess molar enthalpy (x1 = 0.248) was 0.425 ± 0.00932 kcal/mol, the excess molar enthalpy (x1 = 0.254) was 0.431 ± 0.00956 kcal/mol and the excess molar enthalpy (x1 = 0.259) was 0.438 ± 0.00956 kcal/mol. For the same compound, the excess molar enthalpy (x1 = 0.266) was 0.446 ± 0.0098 kcal/mol, the excess molar enthalpy (x1 = 0.272) was 0.453 ± 0.01 kcal/mol and the excess molar enthalpy (x1 = 0.279) was 0.461 ± 0.01 kcal/mol. It also gave an excess molar enthalpy (x1 = 0.286) of 0.469 ± 0.0103 kcal/mol, an excess molar enthalpy (x1 = 0.293) of 0.48 ± 0.0108 kcal/mol and an excess molar enthalpy (x1 = 0.301) of 0.492 ± 0.011 kcal/mol. For the same compound, the excess molar enthalpy (x1 = 0.309) was 0.504 ± 0.011 kcal/mol, the excess molar enthalpy (x1 = 0.318) was 0.516 ± 0.0112 kcal/mol and the excess molar enthalpy (x1 = 0.328) was 0.528 ± 0.0115 kcal/mol. For the same compound, the excess molar enthalpy (x1 = 0.337) was 0.541 ± 0.0117 kcal/mol, the excess molar enthalpy (x1 = 0.348) was 0.554 ± 0.012 kcal/mol and the excess molar enthalpy (x1 = 0.359) was 0.566 ± 0.0122 kcal/mol. The excess molar enthalpy (x1 = 0.371) was 0.577 ± 0.0124 kcal/mol, the excess molar enthalpy (x1 = 0.383) was 0.586 ± 0.0127 kcal/mol and the excess molar enthalpy (x1 = 0.392) was 0.593 ± 0.0127 kcal/mol. The excess molar enthalpy (x1 = 0.4) was 0.599 ± 0.0129 kcal/mol, the excess molar enthalpy (x1 = 0.41) was 0.605 ± 0.0129 kcal/mol and the excess molar enthalpy (x1 = 0.419) was 0.608 ± 0.0129 kcal/mol. It also gave an excess molar enthalpy (x1 = 0.429) of 0.611 ± 0.0129 kcal/mol, an excess molar enthalpy (x1 = 0.44) of 0.611 ± 0.0129 kcal/mol and an excess molar enthalpy (x1 = 0.451) of 0.611 ± 0.0129 kcal/mol. For the same compound, the excess molar enthalpy (x1 = 0.462) was 0.608 ± 0.0129 kcal/mol, the excess molar enthalpy (x1 = 0.474) was 0.605 ± 0.0129 kcal/mol and the excess molar enthalpy (x1 = 0.487) was 0.6 ± 0.0129 kcal/mol. The excess molar enthalpy (x1 = 0.501) was 0.596 ± 0.0127 kcal/mol, the excess molar enthalpy (x1 = 0.515) was 0.589 ± 0.0127 kcal/mol and the excess molar enthalpy (x1 = 0.53) was 0.582 ± 0.0124 kcal/mol. It also gave an excess molar enthalpy (x1 = 0.546) of 0.571 ± 0.0122 kcal/mol, an excess molar enthalpy (x1 = 0.563) of 0.56 ± 0.012 kcal/mol and an excess molar enthalpy (x1 = 0.582) of 0.545 ± 0.0117 kcal/mol. For the same compound, the excess molar enthalpy (x1 = 0.601) was 0.531 ± 0.0115 kcal/mol, the excess molar enthalpy (x1 = 0.622) was 0.511 ± 0.011 kcal/mol and the excess molar enthalpy (x1 = 0.644) was 0.49 ± 0.0105 kcal/mol. It also gave an excess molar enthalpy (x1 = 0.653) of 0.482 ± 0.0105 kcal/mol, an excess molar enthalpy (x1 = 0.663) of 0.474 ± 0.0103 kcal/mol and an excess molar enthalpy (x1 = 0.673) of 0.464 ± 0.01 kcal/mol. For the same compound, the excess molar enthalpy (x1 = 0.683) was 0.455 ± 0.01 kcal/mol, the excess molar enthalpy (x1 = 0.693) was 0.443 ± 0.0098 kcal/mol and the excess molar enthalpy (x1 = 0.704) was 0.429 ± 0.00956 kcal/mol. The excess molar enthalpy (x1 = 0.715) was 0.417 ± 0.00908 kcal/mol, the excess molar enthalpy (x1 = 0.727) was 0.405 ± 0.00884 kcal/mol and the excess molar enthalpy (x1 = 0.739) was 0.392 ± 0.0086 kcal/mol. For the same compound, the excess molar enthalpy (x1 = 0.751) was 0.378 ± 0.00837 kcal/mol, the excess molar enthalpy (x1 = 0.764) was 0.363 ± 0.00813 kcal/mol and the excess molar enthalpy (x1 = 0.777) was 0.348 ± 0.00789 kcal/mol. It also gave an excess molar enthalpy (x1 = 0.79) of 0.331 ± 0.00741 kcal/mol, an excess molar enthalpy (x1 = 0.804) of 0.313 ± 0.00717 kcal/mol and an excess molar enthalpy (x1 = 0.819) of 0.294 ± 0.00693 kcal/mol. It also gave an excess molar enthalpy (x1 = 0.834) of 0.275 ± 0.00645 kcal/mol, an excess molar enthalpy (x1 = 0.85) of 0.254 ± 0.00598 kcal/mol and an excess molar enthalpy (x1 = 0.866) of 0.231 ± 0.00574 kcal/mol. It also gave an excess molar enthalpy (x1 = 0.883) of 0.208 ± 0.0055 kcal/mol, an excess molar enthalpy (x1 = 0.9) of 0.18 ± 0.00502 kcal/mol and an excess molar enthalpy (x1 = 0.919) of 0.149 ± 0.00478 kcal/mol. It also gave an excess molar enthalpy (x1 = 0.938) of 0.114 ± 0.0043 kcal/mol, an excess molar enthalpy (x1 = 0.958) of 0.0796 ± 0.00406 kcal/mol and an excess molar enthalpy (x1 = 0.978) of 0.0411 ± 0.00406 kcal/mol.

For `CCCCCCCC[n+]1ccn(C)c1.F[B-](F)(F)F` [1-methyl-3-octylimidazolium tetrafluoroborate] + CCCO, the excess molar enthalpy (x1 = 0.136) was 0.302 ± 0.00741 kcal/mol, the excess molar enthalpy (x1 = 0.138) was 0.306 ± 0.00741 kcal/mol and the excess molar enthalpy (x1 = 0.141) was 0.311 ± 0.00741 kcal/mol. The excess molar enthalpy (x1 = 0.144) was 0.317 ± 0.00789 kcal/mol, the excess molar enthalpy (x1 = 0.146) was 0.322 ± 0.00789 kcal/mol and the excess molar enthalpy (x1 = 0.149) was 0.327 ± 0.00789 kcal/mol. For the same compound, the excess molar enthalpy (x1 = 0.152) was 0.333 ± 0.00789 kcal/mol, the excess molar enthalpy (x1 = 0.156) was 0.339 ± 0.00813 kcal/mol and the excess molar enthalpy (x1 = 0.159) was 0.345 ± 0.00813 kcal/mol. The excess molar enthalpy (x1 = 0.163) was 0.352 ± 0.00837 kcal/mol, the excess molar enthalpy (x1 = 0.166) was 0.358 ± 0.0086 kcal/mol and the excess molar enthalpy (x1 = 0.169) was 0.363 ± 0.00837 kcal/mol. The excess molar enthalpy (x1 = 0.173) was 0.368 ± 0.00837 kcal/mol, the excess molar enthalpy (x1 = 0.176) was 0.374 ± 0.00884 kcal/mol and the excess molar enthalpy (x1 = 0.179) was 0.38 ± 0.00884 kcal/mol. It also gave an excess molar enthalpy (x1 = 0.183) of 0.385 ± 0.00884 kcal/mol, an excess molar enthalpy (x1 = 0.187) of 0.391 ± 0.00908 kcal/mol and an excess molar enthalpy (x1 = 0.19) of 0.397 ± 0.00932 kcal/mol. For the same compound, the excess molar enthalpy (x1 = 0.194) was 0.404 ± 0.00908 kcal/mol, the excess molar enthalpy (x1 = 0.199) was 0.411 ± 0.00932 kcal/mol and the excess molar enthalpy (x1 = 0.203) was 0.419 ± 0.00956 kcal/mol. The excess molar enthalpy (x1 = 0.208) was 0.426 ± 0.0098 kcal/mol, the excess molar enthalpy (x1 = 0.212) was 0.435 ± 0.01 kcal/mol and the excess molar enthalpy (x1 = 0.217) was 0.443 ± 0.01 kcal/mol. For the same compound, the excess molar enthalpy (x1 = 0.223) was 0.451 ± 0.01 kcal/mol, the excess molar enthalpy (x1 = 0.228) was 0.46 ± 0.0103 kcal/mol and the excess molar enthalpy (x1 = 0.234) was 0.469 ± 0.0105 kcal/mol. It also gave an excess molar enthalpy (x1 = 0.24) of 0.479 ± 0.0108 kcal/mol, an excess molar enthalpy (x1 = 0.247) of 0.489 ± 0.011 kcal/mol and an excess molar enthalpy (x1 = 0.253) of 0.5 ± 0.011 kcal/mol. The excess molar enthalpy (x1 = 0.261) was 0.511 ± 0.0112 kcal/mol, the excess molar enthalpy (x1 = 0.268) was 0.523 ± 0.0115 kcal/mol and the excess molar enthalpy (x1 = 0.276) was 0.534 ± 0.0117 kcal/mol. The excess molar enthalpy (x1 = 0.285) was 0.546 ± 0.012 kcal/mol, the excess molar enthalpy (x1 = 0.29) was 0.554 ± 0.0122 kcal/mol and the excess molar enthalpy (x1 = 0.296) was 0.562 ± 0.0122 kcal/mol. The excess molar enthalpy (x1 = 0.302) was 0.57 ± 0.0124 kcal/mol, the excess molar enthalpy (x1 = 0.309) was 0.577 ± 0.0124 kcal/mol and the excess molar enthalpy (x1 = 0.315) was 0.585 ± 0.0127 kcal/mol. For the same compound, the excess molar enthalpy (x1 = 0.322) was 0.592 ± 0.0129 kcal/mol, the excess molar enthalpy (x1 = 0.329) was 0.6 ± 0.0129 kcal/mol and the excess molar enthalpy (x1 = 0.337) was 0.607 ± 0.0131 kcal/mol. The excess molar enthalpy (x1 = 0.345) was 0.614 ± 0.0131 kcal/mol, the excess molar enthalpy (x1 = 0.353) was 0.62 ± 0.0134 kcal/mol and the excess molar enthalpy (x1 = 0.362) was 0.624 ± 0.0134 kcal/mol. It also gave an excess molar enthalpy (x1 = 0.371) of 0.629 ± 0.0134 kcal/mol, an excess molar enthalpy (x1 = 0.381) of 0.632 ± 0.0134 kcal/mol and an excess molar enthalpy (x1 = 0.391) of 0.634 ± 0.0136 kcal/mol. The excess molar enthalpy (x1 = 0.401) was 0.635 ± 0.0136 kcal/mol, the excess molar enthalpy (x1 = 0.413) was 0.635 ± 0.0136 kcal/mol and the excess molar enthalpy (x1 = 0.425) was 0.636 ± 0.0136 kcal/mol. For the same compound, the excess molar enthalpy (x1 = 0.437) was 0.635 ± 0.0136 kcal/mol, the excess molar enthalpy (x1 = 0.451) was 0.634 ± 0.0136 kcal/mol and the excess molar enthalpy (x1 = 0.465) was 0.632 ± 0.0134 kcal/mol. The excess molar enthalpy (x1 = 0.48) was 0.628 ± 0.0134 kcal/mol, the excess molar enthalpy (x1 = 0.496) was 0.623 ± 0.0134 kcal/mol and the excess molar enthalpy (x1 = 0.513) was 0.617 ± 0.0131 kcal/mol. For the same compound, the excess molar enthalpy (x1 = 0.532) was 0.61 ± 0.0131 kcal/mol, the excess molar enthalpy (x1 = 0.552) was 0.598 ± 0.0129 kcal/mol and the excess molar enthalpy (x1 = 0.56) was 0.592 ± 0.0127 kcal/mol. For the same compound, the excess molar enthalpy (x1 = 0.569) was 0.586 ± 0.0127 kcal/mol, the excess molar enthalpy (x1 = 0.578) was 0.579 ± 0.0124 kcal/mol and the excess molar enthalpy (x1 = 0.587) was 0.571 ± 0.0122 kcal/mol. For the same compound, the excess molar enthalpy (x1 = 0.596) was 0.563 ± 0.0122 kcal/mol, the excess molar enthalpy (x1 = 0.606) was 0.555 ± 0.012 kcal/mol and the excess molar enthalpy (x1 = 0.616) was 0.545 ± 0.0117 kcal/mol. The excess molar enthalpy (x1 = 0.627) was 0.535 ± 0.0115 kcal/mol, the excess molar enthalpy (x1 = 0.638) was 0.525 ± 0.0115 kcal/mol and the excess molar enthalpy (x1 = 0.649) was 0.513 ± 0.0112 kcal/mol. For the same compound, the excess molar enthalpy (x1 = 0.66) was 0.501 ± 0.011 kcal/mol, the excess molar enthalpy (x1 = 0.672) was 0.488 ± 0.0105 kcal/mol and the excess molar enthalpy (x1 = 0.685) was 0.474 ± 0.0103 kcal/mol. It also gave an excess molar enthalpy (x1 = 0.698) of 0.458 ± 0.01 kcal/mol, an excess molar enthalpy (x1 = 0.711) of 0.443 ± 0.0098 kcal/mol and an excess molar enthalpy (x1 = 0.725) of 0.425 ± 0.00932 kcal/mol. The excess molar enthalpy (x1 = 0.74) was 0.407 ± 0.00908 kcal/mol, the excess molar enthalpy (x1 = 0.755) was 0.387 ± 0.0086 kcal/mol and the excess molar enthalpy (x1 = 0.771) was 0.366 ± 0.00837 kcal/mol. It also gave an excess molar enthalpy (x1 = 0.787) of 0.343 ± 0.00789 kcal/mol, an excess molar enthalpy (x1 = 0.804) of 0.319 ± 0.00741 kcal/mol and an excess molar enthalpy (x1 = 0.822) of 0.293 ± 0.00693 kcal/mol. For the same compound, the excess molar enthalpy (x1 = 0.841) was 0.265 ± 0.00645 kcal/mol, the excess molar enthalpy (x1 = 0.86) was 0.235 ± 0.00598 kcal/mol and the excess molar enthalpy (x1 = 0.881) was 0.202 ± 0.0055 kcal/mol. The excess molar enthalpy (x1 = 0.902) was 0.168 ± 0.00478 kcal/mol, the excess molar enthalpy (x1 = 0.925) was 0.131 ± 0.0043 kcal/mol and the excess molar enthalpy (x1 = 0.949) was 0.0915 ± 0.00406 kcal/mol. The excess molar enthalpy (x1 = 0.974) was 0.0476 ± 0.00359 kcal/mol.

From the NIST ThermoML archive (doi:10.1021/je400709f)
